Experimental data taken from article PMC10320002, “In vitro antiproliferative, anti-inflammatory effects and molecular docking studies of natural compounds isolated from Sarcocephalus pobeguinii (Hua ex Pobég)” (Frontiers in Pharmacology, 2023).
“And” between values parts separate entries of the source, which are not always exact repeats. Identical values can stand only once.

Assays:
[1] = tested on: caspase-3/-7 activity in MCF-7 cells; experiment: Caspase-3/-7 luminescence assay (Caspase-Glo 3/7) in MCF-7 cells; format: cell-based, human; conditions: 2×IC50, 18 h, vs cells treated with DMSO 0.5%
Experimental: The effect of the most bioactive compounds (2), (6) and (9) were used for the analysis of caspase-3 and caspase-7 activities on MCF-7 cells by using the Caspase-Glo® 3/7 kit (Promega, Germany). In fact, MCF-7 cells were seeded at a density of 10^4 cells per well on 96-well microtiter plates, and the plates were incubated overnight at 37 °C in a 5% CO2 humidified environment. […] Thereafter, 100 µL of Caspase-Glo® 3/7 reagent was added to each well, mixed and incubated in the dark for 1 h at room temperature. The luminescence was then measured on a microplate reader (Synergy Multi-Mode Reader, BioTek, Winooski, United States of America). The caspase-3/-7 activity was expressed as fold change of cells treated with 0.5% DMSO (control).

RAW 264.7 cells = experiment: MTT cell viability of LPS-stimulated RAW 264.7 cells; format: cell-based, murine; conditions: 100 μg/mL
Experimental: Cancerous cell lines (MCF-7: human breast adenocarcinoma cells; HepG2: human hepatocellular carcinoma cells; Caco-2: human epithelial colorectal adenocarcinoma cells; A549: human epithelial lung adenocarcinoma cells), obtained from the American Type Culture Collection (ATCC) (Rockville, MD, United States of America), were cultured in Dulbecco’s Modified Eagle’s Medium (DMEM) high glucose (4.5 g/L) containing L-glutamine (4 mM) and sodium-pyruvate (Hyclone™) supplemented with 10% (v/v) fetal bovine serum (FBS) (Capricorn Scientific GmbH, South America), and incubated at 37°C with 5% CO2 in a humidified environment. African green monkey (Vero) kidney cells (also obtained from ATCC), a non-cancerous cell line, were grown in DMEM high glucose (4.5 g/L) containing L-glutamine (Lonza, Belgium) and supplemented with 5% FBS (Capricorn Scientific GmbH, South America) and 1% gentamicin (Virbac, RSA) in the same environment as cancer cells. […]
Nitric oxide (NO) production was evaluated in lipopolysaccharide (LPS)-stimulated RAW 264.7 cells by measuring the influence of tested compounds on the accumulation of nitrite, an indicator of NO in the cell supernatant, which can be detected with Griess reagent (Merck, Darmstadt, Germany). […] The microtiter plate was incubated for 10 min in the dark at room temperature, and the absorbance of the mixture was measured at 550 nm on a microplate reader (Synergy Multi-Mode Reader, BioTek, Winooski, United States of America). The quantity of nitrite was determined from a sodium nitrite standard curve, and the percentage of NO production was calculated based on the ability of each tested sample to inhibit nitric oxide production by LPS-stimulated RAW 264.7 cells compared to the control (cells treated with LPS without samples which was considered as 100% NO production). Additionally, the cell viability of treated cells was determined by using the MTT assay as previously described ([Mosmann, 1983]).

[2] = tested on: cancer cells (MCF-7, HepG2, Caco-2 and A549) and non-cancerous Vero cells; experiment: Time-dependent cytotoxic effect on cell growth (MTT); format: cell-based; conditions: 10 μg/mL; 12, 24 and 48 h
Experimental: The cancerous and non-cancerous cells were seeded at a density of 10^4 cells per well in 96-well microtiter plates, and they were incubated overnight at 37°C with 5% CO2 in a 5% CO2 humidified environment in order to allow the attachment of cells at the bottom of the plates. Then, the cells were exposed to increasing concentrations of compounds (100, 50, 25, 10 and 5 μg/mL) dissolved in dimethyl sulfoxide (DMSO) and further diluted in fresh culture medium. In this assay, the final concentration of DMSO in the culture medium was 0.5% used as negative control while doxorubicin hydrochloride (Pfizer, United States of America) was used as a positive control. […] After 4 h of incubation, the medium was gently removed, and the formazan crystals were solubilized in 50 µL of DMSO. The absorbance was measured at 570 nm after shaking for 1 min on a microplate reader (Synergy Multi-Mode Reader, BioTek, Winooski, United States of America).

[3] = tested on: human normal skin fibroblasts (WS1) cell lines; design: method as in Gauthier et al., 2009; conditions: ref Gauthier et al., 2009; cited from earlier work
[4] = tested on: human lung cancer cells A549; design: method as in Gauthier et al., 2009; Gao et al., 2016; conditions: ref Gauthier et al., 2009; Gao et al., 2016; cited from earlier work

| SMILES | fold change in the activation of caspase-3/-7 activity [1] | cell viability of LPS-stimulated RAW 264.7 cells (RAW 264.7 cells) | time-dependent cytotoxic effect on cell growth [2] | IC50 [3] [µM] | IC50 [4] |
| --- | --- | --- | --- | --- | --- |
| CC1(C)CC[C@]2(C(=O)O)CC[C@]3(C)C(=CC[C@@H]4[C@@]5(C)CC[C@H](O)[C@@](C)(CO)[C@@H]5CC[C@]43C)[C@@H]2C1 [Compound 2, hederagenin] | up to 2 fold | significantly (p < 0.05) reduced the cell viability | time-dependent manner | 77 | 26.3 µM and 39 µM |
| C[C@@H]1CC[C@]2(C(=O)O)CC[C@]3(C(=O)O)C(=CCC4[C@@]5(C)CC[C@H](O[C@H]6O[C@H](C)[C@@H](O)[C@H](O)[C@H]6O)C(C)(C)C5CC[C@]43C)C2[C@H]1C (stereo partly drawn) [Compound 6, quinovic acid 3-O-[α-D-quinovopyranoside]] | up to 2 fold | significantly (p < 0.05) reduced the cell viability | – | – | – |
| C[C@@H]1CC[C@]2(C(=O)O)CC[C@]3(C(=O)O)C(=CCC4[C@@]5(C)CC[C@H](O[C@@H]6O[C@H](C)[C@@H](O)[C@H](O)[C@H]6O)C(C)(C)C5CC[C@]43C)C2[C@H]1C (stereo partly drawn) [Compound 9, quinovic acid 3-O-[β-D-quinovopyranoside]] | – | significantly (p < 0.05) reduced the cell viability | – | – | – |
